Patent US20230406885A1, “CYCLIC PEPTIDES FOR TRAPPING INTERLEUKIN-1 BETA” (MERCK SHARP & DOHME LLC, priority 2022, published 2023)
*1 amine or outer side, *2 acyl side, *3 side chain or, on linkers, in order; H or OH if unused. Where a SMILES comes first, the peptide text is derived from it. [ ]: non-standard residue; d: D form. Trp(βS-Me,4-F) = C[C@@H](c1c[nH]c2cccc(F)c12)[C@H](N)C(=O)O; Bip(4'-COOH) = N[C@@H](Cc1ccc(-c2ccc(C(=O)O)cc2)cc1)C(=O)O; X6 = O=C(O)C12CC(c3ccc(C[C@H](N[*:1])C(=O)[*:2])cc3)(C1)C2; X1 = CC(=O)N1CCN(c2ccc(C[C@H](N[*:1])C(=O)[*:2])cn2)CC1; 1Nal(3S-Me) = C[C@@H](c1cccc2ccccc12)[C@H](N)C(=O)O; Ala(indazol-1-yl) = N[C@@H](Cn1ncc2ccccc21)C(=O)O; Trp(6-Cl) = N[C@@H](Cc1c[nH]c2cc(Cl)ccc12)C(=O)O; Phe(4-COOH) = N[C@@H](Cc1ccc(C(=O)O)cc1)C(=O)O; Trp(7-F) = N[C@@H](Cc1c[nH]c2c(F)cccc12)C(=O)O; Trp(7-Me) = Cc1cccc2c(C[C@H](N)C(=O)O)c[nH]c12; h3Pal(5-CN) = N#Cc1cncc(CC[C@H](N)C(=O)O)c1; Pro(4R-NH2) = N[C@H]1CN[C@H](C(=O)O)C1; hTyr = N[C@@H](CCc1ccc(O)cc1)C(=O)O; hCha = N[C@@H](CCC1CCCCC1)C(=O)O; tBuAla = CC(C)(C)C[C@H](N)C(=O)O; Aad = N[C@@H](CCCC(=O)O)C(=O)O; Cha = N[C@@H](CC1CCCCC1)C(=O)O; dNle = CCCC[C@@H](N)C(=O)O; dDab = NCC[C@@H](N)C(=O)O; dNva = CCC[C@@H](N)C(=O)O; Orn = NCCC[C@H](N)C(=O)O; dNMeA = CN[C@H](C)C(=O)O

molecular target: T1, Recombinant human IL-1β (Homo sapiens, UniProt P01584); assay: IL-6 assay in MRC5 cells: inhibition of IL-1β induced IL-6 secretion (AlphaLISA); assay type: cell-based; details: inhibition of IL-1β induced IL-6 secretion in MRC5 cells; read-out: MRC5 IC50
T1 construct: purchased BioLegend 579404
Procedure, shortened: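 IL-1β at 2×EC80 in seeding medium (EMEM, 0.025% BSA) preincubated 1 h at ambient temperature with compound, then 3000 MRC5 cells/well added and incubated overnight at 37 °C, 5% CO2. IL-6 in conditioned medium quantified by AlphaLISA; IC50 from 4-parameter logistic fit.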

T1 sequence (P01584 117-269): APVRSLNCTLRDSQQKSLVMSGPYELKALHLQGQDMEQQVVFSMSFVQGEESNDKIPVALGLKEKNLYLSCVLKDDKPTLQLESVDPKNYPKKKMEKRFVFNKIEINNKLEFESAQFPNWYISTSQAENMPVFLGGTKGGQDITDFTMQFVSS

| Compound | IC50 [nM] |
| --- | --- |
| CC(=O)N1CCN(c2ccc(C[C@@H]3NC(=O)[C@H](CCc4cncc(C#N)c4)NC(=O)[C@@H](C)NC(=O)[C@H](CC(C)C)NC(=O)[C@H](CCCC(N)=O)NC(=O)[C@H](Cc4ccc(-c5ccc(C(=O)O)cc5)cc4)NC(=O)CNC(=O)[C@@H](C)N(C)C(=O)[C@H](CC(=O)O)NC(=O)[C@H]([C@@H](C)c4cccc5ccccc45)NC(=O)[C@@H]4C[C@@H](N)CN4C(=O)CNC(=O)[C@H](Cc4ccc(C(=O)O)cc4)NC(=O)[C@H](Cc4c[nH]c5ccccc45)NC3=O)cn2)CC1 [Example 176] (cyclo([X1]W[Phe(4-COOH)]G[Pro(4R-NH2)][1Nal(3S-Me)]D[dNMeA]G[Bip(4'-COOH)][Aad](NH2)L[dA][h3Pal(5-CN)])) | 0.017 |
| CCC[C@H]1NC(=O)[C@H](CC(C)C)NC(=O)[C@H](CCCCN)NC(=O)[C@H](Cc2ccc(-c3ccc(C(=O)O)cc3)cc2)NC(=O)CNC(=O)[C@@H](C)N(C)C(=O)[C@H](CC(=O)O)NC(=O)[C@H]([C@@H](C)c2cccc3ccccc23)NC(=O)[C@@H]2C[C@@H](N)CN2C(=O)CNC(=O)[C@H](Cc2ccc(C(=O)O)cc2)NC(=O)[C@H](Cc2c[nH]c3ccccc23)NC(=O)[C@H](Cc2ccc(N3CCN(C(C)=O)CC3)nc2)NC(=O)[C@H](CCc2cncc(C#N)c2)NC1=O [Example 180] (cyclo([X1]W[Phe(4-COOH)]G[Pro(4R-NH2)][1Nal(3S-Me)]D[dNMeA]G[Bip(4'-COOH)]KL[dNva][h3Pal(5-CN)])) | 0.021 |
| CC(C)C[C@@H]1NC(=O)[C@H](CCCCN)NC(=O)[C@H](Cc2ccc(-c3ccc(C(=O)O)cc3)cc2)NC(=O)CNC(=O)[C@@H](C)N(C)C(=O)[C@H](CC(=O)O)NC(=O)[C@H]([C@@H](C)c2c[nH]c3cccc(F)c23)NC(=O)[C@@H]2C[C@@H](N)CN2C(=O)CNC(=O)[C@H](Cc2ccc(C(=O)O)cc2)NC(=O)[C@H](Cc2c[nH]c3cc(Cl)ccc23)NC(=O)[C@H](Cc2ccc(-c3ccc(C(=O)O)cc3)cc2)NC(=O)[C@H](CCc2ccc(O)cc2)NC(=O)[C@@H](C)NC1=O [Example 184] (cyclo([Bip(4'-COOH)][Trp(6-Cl)][Phe(4-COOH)]G[Pro(4R-NH2)][Trp(βS-Me,4-F)]D[dNMeA]G[Bip(4'-COOH)]KL[dA][hTyr])) | 0.018 |
| CC(C)C[C@@H]1NC(=O)[C@H](CCCCN)NC(=O)[C@H](Cc2ccc(-c3ccc(C(=O)O)cc3)cc2)NC(=O)CNC(=O)[C@@H](C)N(C)C(=O)[C@H](CC(=O)O)NC(=O)[C@H]([C@@H](C)c2c[nH]c3cccc(F)c23)NC(=O)[C@@H]2C[C@@H](N)CN2C(=O)CNC(=O)[C@H](Cc2ccc(C(=O)O)cc2)NC(=O)[C@H](Cc2c[nH]c3c(F)cccc23)NC(=O)[C@H](Cc2ccc(-c3ccc(C(=O)O)cc3)cc2)NC(=O)[C@H](CCc2ccc(O)cc2)NC(=O)[C@@H](C)NC1=O [Example 185] (cyclo([Bip(4'-COOH)][Trp(7-F)][Phe(4-COOH)]G[Pro(4R-NH2)][Trp(βS-Me,4-F)]D[dNMeA]G[Bip(4'-COOH)]KL[dA][hTyr])) | 0.024 |
| CC(=O)NCCCC[C@H]1NC(=O)[C@H](CC(C)C)NC(=O)[C@H](CCCCN)NC(=O)[C@H](Cc2ccc(-c3ccc(C(=O)O)cc3)cc2)NC(=O)CNC(=O)[C@@H](C)N(C)C(=O)[C@H](CC(=O)O)NC(=O)[C@H]([C@@H](C)c2c[nH]c3cccc(F)c23)NC(=O)[C@@H]2C[C@@H](N)CN2C(=O)CNC(=O)[C@H](Cc2ccc(C(=O)O)cc2)NC(=O)[C@H](Cc2c[nH]c3ccccc23)NC(=O)[C@H](Cc2ccc(-c3ccc(C(=O)O)cc3)cc2)NC(=O)[C@H](CCc2ccc(O)cc2)NC1=O [Example 187] (cyclo([Bip(4'-COOH)]W[Phe(4-COOH)]G[Pro(4R-NH2)][Trp(βS-Me,4-F)]D[dNMeA]G[Bip(4'-COOH)]KL[dK](Ac)[hTyr])) | 0.009 |
| C[C@@H]1C(=O)NCC(=O)N[C@@H](Cc2ccc(-c3ccc(C(=O)O)cc3)cc2)C(=O)N[C@@H](CC2CCCCC2)C(=O)NCC(=O)N[C@H](CCN)C(=O)N[C@@H](CCC2CCCCC2)C(=O)N[C@@H](Cc2ccc(C34CC(C(=O)O)(C3)C4)cc2)C(=O)N[C@@H](Cc2c[nH]c3ccccc23)C(=O)N[C@@H](Cc2ccc(C(=O)O)cc2)C(=O)NCC(=O)N2C[C@H](N)C[C@H]2C(=O)N[C@@H]([C@@H](C)c2cccc3ccccc23)C(=O)N[C@@H](CC(=O)O)C(=O)N1C [Example 189] (cyclo([X6]W[Phe(4-COOH)]G[Pro(4R-NH2)][1Nal(3S-Me)]D[dNMeA]G[Bip(4'-COOH)][Cha]G[dDab][hCha])) | 0.019 |

More lines, in order of falling IC50, values ahead:

| IC50 [nM] | Compound |
| --- | --- |
| 0.038 | Cc1cccc2c(C[C@@H]3NC(=O)[C@H](Cc4ccc(-c5ccc(C(=O)O)cc5)cc4)NC(=O)[C@H](CCc4ccc(O)cc4)NC(=O)[C@@H](C)NC(=O)[C@H](CC(C)C)NC(=O)[C@H](CCCCN)NC(=O)[C@H](Cc4ccc(-c5ccc(C(=O)O)cc5)cc4)NC(=O)CNC(=O)[C@@H](C)N(C)C(=O)[C@H](CC(=O)O)NC(=O)[C@H]([C@@H](C)c4c[nH]c5cccc(F)c45)NC(=O)[C@@H]4C[C@@H](N)CN4C(=O)CNC(=O)[C@H](Cc4ccc(C(=O)O)cc4)NC3=O)c[nH]c12 [Example 186] (cyclo([Bip(4'-COOH)][Trp(7-Me)][Phe(4-COOH)]G[Pro(4R-NH2)][Trp(βS-Me,4-F)]D[dNMeA]G[Bip(4'-COOH)]KL[dA][hTyr])) |
| 0.019 | CC(=O)N1CCN(c2ccc(C[C@@H]3NC(=O)[C@H](CCc4cncc(C#N)c4)NC(=O)[C@@H](CC(C)C)NC(=O)[C@H](CC(C)C)NC(=O)[C@H](CCCCN)NC(=O)[C@H](Cc4ccc(-c5ccc(C(=O)O)cc5)cc4)NC(=O)CNC(=O)[C@@H](C)N(C)C(=O)[C@H](CC(=O)O)NC(=O)[C@H]([C@@H](C)c4cccc5ccccc45)NC(=O)[C@@H]4C[C@@H](N)CN4C(=O)CNC(=O)[C@H](Cc4ccc(C(=O)O)cc4)NC(=O)[C@H](Cc4c[nH]c5ccccc45)NC3=O)cn2)CC1 [Example 178] (cyclo([X1]W[Phe(4-COOH)]G[Pro(4R-NH2)][1Nal(3S-Me)]D[dNMeA]G[Bip(4'-COOH)]KL[dL][h3Pal(5-CN)])) |
| 0.017 | CCCC[C@H]1NC(=O)[C@H](CC(C)C)NC(=O)[C@H](CCCCN)NC(=O)[C@H](Cc2ccc(-c3ccc(C(=O)O)cc3)cc2)NC(=O)CNC(=O)[C@@H](C)N(C)C(=O)[C@H](CC(=O)O)NC(=O)[C@H]([C@@H](C)c2cccc3ccccc23)NC(=O)[C@@H]2C[C@@H](N)CN2C(=O)CNC(=O)[C@H](Cc2ccc(C(=O)O)cc2)NC(=O)[C@H](Cc2c[nH]c3ccccc23)NC(=O)[C@H](Cc2ccc(N3CCN(C(C)=O)CC3)nc2)NC(=O)[C@H](CCc2cncc(C#N)c2)NC1=O [Example 179] (cyclo([X1]W[Phe(4-COOH)]G[Pro(4R-NH2)][1Nal(3S-Me)]D[dNMeA]G[Bip(4'-COOH)]KL[dNle][h3Pal(5-CN)])) |
| 0.016 | C[C@@H]1C(=O)NCC(=O)N[C@@H](Cc2ccc(-c3ccc(C(=O)O)cc3)cc2)C(=O)N[C@@H](Cn2ncc3ccccc32)C(=O)NCC(=O)N[C@H](CCN)C(=O)N[C@@H](CCC2CCCCC2)C(=O)N[C@@H](Cc2ccc(C34CC(C(=O)O)(C3)C4)cc2)C(=O)N[C@@H](Cc2c[nH]c3ccccc23)C(=O)N[C@@H](Cc2ccc(C(=O)O)cc2)C(=O)NCC(=O)N2C[C@H](N)C[C@H]2C(=O)N[C@@H]([C@@H](C)c2cccc3ccccc23)C(=O)N[C@@H](CC(=O)O)C(=O)N1C [Example 188] (cyclo([X6]W[Phe(4-COOH)]G[Pro(4R-NH2)][1Nal(3S-Me)]D[dNMeA]G[Bip(4'-COOH)][Ala(indazol-1-yl)]G[dDab][hCha])) |
| 0.015 | CC(=O)N1CCN(c2ccc(C[C@@H]3NC(=O)[C@H](CCc4cncc(C#N)c4)NC(=O)[C@@H](C)NC(=O)[C@H](CC(C)(C)C)NC(=O)[C@H](CCCCN)NC(=O)[C@H](Cc4ccc(-c5ccc(C(=O)O)cc5)cc4)NC(=O)CNC(=O)[C@@H](C)N(C)C(=O)[C@H](CC(=O)O)NC(=O)[C@H]([C@@H](C)c4cccc5ccccc45)NC(=O)[C@@H]4C[C@@H](N)CN4C(=O)CNC(=O)[C@H](Cc4ccc(C(=O)O)cc4)NC(=O)[C@H](Cc4c[nH]c5ccccc45)NC3=O)cn2)CC1 [Example 181] (cyclo([X1]W[Phe(4-COOH)]G[Pro(4R-NH2)][1Nal(3S-Me)]D[dNMeA]G[Bip(4'-COOH)]K[tBuAla][dA][h3Pal(5-CN)])) |
| 0.013 | CC(=O)N1CCN(c2ccc(C[C@@H]3NC(=O)[C@H](CCC4CCCCC4)NC(=O)[C@@H](C)NC(=O)[C@H](CC(C)C)NC(=O)[C@H](CCCCN)NC(=O)[C@H](Cc4ccc(-c5ccc(C(=O)O)cc5)cc4)NC(=O)CNC(=O)[C@@H](C)N(C)C(=O)[C@H](CC(=O)O)NC(=O)[C@H]([C@@H](C)c4cccc5ccccc45)NC(=O)[C@@H]4C[C@@H](N)CN4C(=O)CNC(=O)[C@H](Cc4ccc(C(=O)O)cc4)NC(=O)[C@H](Cc4c[nH]c5ccccc45)NC3=O)cn2)CC1 [Example 177] (cyclo([X1]W[Phe(4-COOH)]G[Pro(4R-NH2)][1Nal(3S-Me)]D[dNMeA]G[Bip(4'-COOH)]KL[dA][hCha])) |
| 0.013 | CC(=O)N1CCN(c2ccc(C[C@@H]3NC(=O)[C@H](CCC4CCCCC4)NC(=O)[C@@H](C)NC(=O)[C@H](CC(C)C)NC(=O)[C@H](CCCN)NC(=O)[C@H](Cc4ccc(-c5ccc(C(=O)O)cc5)cc4)NC(=O)CNC(=O)[C@@H](C)N(C)C(=O)[C@H](CC(=O)O)NC(=O)[C@H]([C@@H](C)c4cccc5ccccc45)NC(=O)[C@@H]4C[C@@H](N)CN4C(=O)CNC(=O)[C@H](Cc4ccc(C(=O)O)cc4)NC(=O)[C@H](Cc4c[nH]c5ccccc45)NC3=O)cn2)CC1 [Example 182] (cyclo([X1]W[Phe(4-COOH)]G[Pro(4R-NH2)][1Nal(3S-Me)]D[dNMeA]G[Bip(4'-COOH)][Orn]L[dA][hCha])) |
| 0.013 | CC(=O)N1CCN(c2ccc(C[C@@H]3NC(=O)[C@H](CCc4cncc(C#N)c4)NC(=O)[C@@H](C)NC(=O)[C@H](CC(C)C)NC(=O)[C@H](CCC(N)=O)NC(=O)[C@H](Cc4ccc(-c5ccc(C(=O)O)cc5)cc4)NC(=O)CNC(=O)[C@@H](C)N(C)C(=O)[C@H](CC(=O)O)NC(=O)[C@H]([C@@H](C)c4cccc5ccccc45)NC(=O)[C@@H]4C[C@@H](N)CN4C(=O)CNC(=O)[C@H](Cc4ccc(C(=O)O)cc4)NC(=O)[C@H](Cc4c[nH]c5ccccc45)NC3=O)cn2)CC1 [Example 183] (cyclo([X1]W[Phe(4-COOH)]G[Pro(4R-NH2)][1Nal(3S-Me)]D[dNMeA]G[Bip(4'-COOH)]QL[dA][h3Pal(5-CN)])) |
